These results are taken from publication PMC3631187, “Structural and Functional Insights into Saccharomyces cerevisiae Riboflavin Biosynthesis Reductase RIB7” (PLoS ONE, 2013).

Data set [1] deals with T1, ScRIB7 (Saccharomyces cerevisiae, UniProt P33312).
T1 construct: gene RIB7; recombinant in E. coli BL21(DE3), pGEX6p-1, GST tag removed with PreScission protease; homodimer, ~43 kDa by sedimentation
T1 sequence (P33312 1-244): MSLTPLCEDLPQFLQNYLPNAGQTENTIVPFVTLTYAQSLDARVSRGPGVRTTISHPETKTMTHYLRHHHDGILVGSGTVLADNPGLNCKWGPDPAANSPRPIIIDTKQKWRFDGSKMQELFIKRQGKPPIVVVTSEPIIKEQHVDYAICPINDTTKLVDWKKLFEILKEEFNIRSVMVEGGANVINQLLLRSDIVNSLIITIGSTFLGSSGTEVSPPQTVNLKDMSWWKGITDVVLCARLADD
The data set can be described thus: isothermal titration calorimetry. It counts as binding. The following applies: 80 µM protein titrated with 800 µM NADPH in PBS; crystal structure of the complex (2.35 Å) also solved. On the technique in general: In ITC the heat of successive injections is recorded.

The target of data set [2] is T2, ScRIB7 (Saccharomyces cerevisiae, UniProt P33312, D83A).
T2 construct: gene RIB7; recombinant in E. coli BL21(DE3), pGEX6p-1, GST tag removed with PreScission protease; homodimer, ~43 kDa by sedimentation
T2 sequence (P33312 1-244 D83A): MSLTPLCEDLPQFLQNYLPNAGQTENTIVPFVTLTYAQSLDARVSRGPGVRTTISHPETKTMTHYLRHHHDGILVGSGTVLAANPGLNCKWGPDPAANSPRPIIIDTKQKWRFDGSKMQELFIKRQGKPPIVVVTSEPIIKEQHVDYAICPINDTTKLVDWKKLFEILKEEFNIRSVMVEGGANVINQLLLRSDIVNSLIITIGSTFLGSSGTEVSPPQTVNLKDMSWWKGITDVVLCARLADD
The data set can be described thus: isothermal titration calorimetry. It counts as binding. The following applies: 80 µM protein titrated with 800 µM NADPH in PBS.

In data set [3] the target is T3, ScRIB7 (Saccharomyces cerevisiae, UniProt P33312, T79A).
T3 construct: gene RIB7; recombinant in E. coli BL21(DE3), pGEX6p-1, GST tag removed with PreScission protease; homodimer, ~43 kDa by sedimentation
T3 sequence (P33312 1-244 T79A): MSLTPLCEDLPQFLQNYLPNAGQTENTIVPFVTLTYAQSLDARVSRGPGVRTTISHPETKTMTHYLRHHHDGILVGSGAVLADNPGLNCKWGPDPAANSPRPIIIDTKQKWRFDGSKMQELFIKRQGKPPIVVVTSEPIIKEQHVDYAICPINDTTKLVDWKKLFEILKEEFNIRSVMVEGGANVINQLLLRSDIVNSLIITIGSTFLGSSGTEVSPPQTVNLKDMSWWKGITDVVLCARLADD
The data set can be described thus: isothermal titration calorimetry. As to conditions: 80 µM protein titrated with 800 µM NADPH in PBS. The format is binding.

Data set [4] concerns the molecule itself. The data set can be described thus: SEC; gel filtration, data not shown; conditions of this run not told. A general note: SEC sorts molecules by how far they enter the pores of the column.

`NC(=O)C1=CN([C@@H]2O[C@H](COP(=O)(O)OP(=O)(O)OC[C@H]3O[C@@H](n4cnc5c(N)ncnc54)[C@H](OP(=O)(O)O)[C@@H]3O)[C@@H](O)[C@H]2O)C=CC1` [NADPH]: the binding constant result was “Interactions between enzymes and NADPH were detected by isothermal titration calorimetry using nano-ITC2g” at ScRIB7 [1]; “The binding constant of the D83A mutant with NADPH was similar to that of the wild type” at ScRIB7 [2]. Besides, the “no interaction heat detected” value at ScRIB7 [3] was “no interaction heat was detected for the T79A mutant”.

B1: Saccharomyces cerevisiae RIB7 (enzyme)
chain: MSLTPLCEDLPQFLQNYLPNAGQTENTIVPFVTLTYAQSLDARVSRGPGVRTTISHPETKTMTHYLRHHHDGILVGSGTVLADNPGLNCKWGPDPAANSPRPIIIDTKQKWRFDGSKMQELFIKRQGKPPIVVVTSEPIIKEQHVDYAICPINDTTKLVDWKKLFEILKEEFNIRSVMVEGGANVINQLLLRSDIVNSLIITIGSTFLGSSGTEVSPPQTVNLKDMSWWKGITDVVLCARLADD
notes: RIB7, riboflavin biosynthesis reductase of Saccharomyces cerevisiae; RIB7 gene amplified from genomic DNA and cloned BamHI/XhoI into pGEX6p-1; Wild type; A seleno-methionine derivative was used only for phasing; Residues left by the PreScission site after cleavage are not described; also called ScRIB7; riboflavin biosynthesis reductase RIB7; source: E. coli BL21 (DE3), purified …
As to B1, in data set [4], the “stoichiometry N” value came to 2.

The stoichiometry N is the number of molecules, sites or subunits per partner or assembly.
